Test results reported in ChEMBL document CHEMBL3885881, “DrugMatrix”.

Species: Rattus norvegicus
Assay: DrugMatrix - Regimen: Daily Repeat
Format: toxicity, organism-based, Sprague-Dawley
Parameters: regimen Daily Repeat, gender Male, age 6-8 weeks
Details: in vivo, po, route oral GAVAGE, vehicle .5 % CMC; for BASOPHIL / EOSINOPHIL / ERYTHROCYTE COUNT / HEMATOCRIT / HEMOGLOBIN / LEUKOCYTE COUNT / LYMPHOCYTE / MEAN CORPUSCULAR HEMOGLOBIN / MEAN CORPUSCULAR HEMOGLOBIN CONCENTRATION / MEAN CORPUSCULAR VOLUME / MONOCYTE / NEUTROPHIL / PLATELET COUNT: tissue Blood; for ALANINE AMINOTRANSFERASE / ALBUMIN / ALKALINE PHOSPHATASE / ASPARTATE AMINOTRANSFERASE / BLOOD UREA NITROGEN / CHLORIDE / CHOLESTEROL / CREATINE PHOSPHOKINASE / CREATININE / GLUCOSE / PHOSPHORUS / SODIUM / TOTAL PROTEIN: tissue Plasma
[1] = 10 mg/kg, 120 h, dose level Low, time 5 day
[2] = 2000 mg/kg, 72 h, dose level High, time 3 day
[3] = 2000 mg/kg, 120 h, dose level High, time 5 day

In the case of `CCn1cc(C(=O)O)c(=O)c2cc(F)c(N3CCNC(C)C3)c(F)c21` (stereo not drawn) [LOMEFLOXACIN], the BASOPHIL [1] is reported as 0%, the EOSINOPHIL [1] is reported as 0% and the “ERYTHROCYTE COUNT” value [1] is reported as 6.95 x10E6/uL. The HEMATOCRIT [1] was 41.1%, the HEMOGLOBIN [1] was 15.1 G/DL and the “LEUKOCYTE COUNT” value [1] was 16.87 x10E3/uL. For the same molecule, the LYMPHOCYTE [1] was 90.67%, the “MEAN CORPUSCULAR HEMOGLOBIN” value [1] was 21.77 pg and the “MEAN CORPUSCULAR HEMOGLOBIN CONCENTRATION” value [1] was 36.73 G/DL. For the same molecule, the “MEAN CORPUSCULAR VOLUME” value [1] was 59.17 fL, the MONOCYTE [1] was 0.33% and the NEUTROPHIL [1] was 9%. For the same molecule, the “PLATELET COUNT” value [1] was 1212.33 x10E3/uL, the “ALANINE AMINOTRANSFERASE” value [1] was 46.33 u/L and the ALBUMIN [1] was 3.43 G/DL. The “ALKALINE PHOSPHATASE” value [1] was 276.33 u/L, the “ASPARTATE AMINOTRANSFERASE” value [1] was 68 u/L and the “BLOOD UREA NITROGEN” value [1] was 13.67 mg/dL. The CHLORIDE [1] was 105 MEQ/L, the CHOLESTEROL [1] was 70 mg/dL and the “CREATINE PHOSPHOKINASE” value [1] was 104.33 u/L. For the same molecule, the CREATININE [1] was 0.57 mg/dL, the GLUCOSE [1] was 159.33 mg/dL and the PHOSPHORUS [1] was 10.67 mg/dL. The SODIUM [1] was 151.67 MEQ/L, the “TOTAL PROTEIN” value [1] was 5.7 G/DL and the BASOPHIL [2] was 0%. The EOSINOPHIL [2] was 0%, the “ERYTHROCYTE COUNT” value [2] was 6.7 x10E6/uL and the HEMATOCRIT [2] was 41%. The HEMOGLOBIN [2] was 15.63 G/DL, the “LEUKOCYTE COUNT” value [2] was 12.43 x10E3/uL and the LYMPHOCYTE [2] was 83%. For the same molecule, the “MEAN CORPUSCULAR HEMOGLOBIN” value [2] was 23.33 pg, the “MEAN CORPUSCULAR HEMOGLOBIN CONCENTRATION” value [2] was 38.17 G/DL and the “MEAN CORPUSCULAR VOLUME” value [2] was 61.2 fL. The MONOCYTE [2] was 0.33%, the NEUTROPHIL [2] was 16.67% and the “PLATELET COUNT” value [2] was 1479.67 x10E3/uL. For the same molecule, the “ALANINE AMINOTRANSFERASE” value [2] was 32 u/L, the ALBUMIN [2] was 3.53 G/DL and the “ALKALINE PHOSPHATASE” value [2] was 214.33 u/L. For the same molecule, the “ASPARTATE AMINOTRANSFERASE” value [2] was 57.67 u/L, the “BLOOD UREA NITROGEN” value [2] was 19 mg/dL and the CHLORIDE [2] was 103.33 MEQ/L. For the same molecule, the CHOLESTEROL [2] was 62.67 mg/dL, the “CREATINE PHOSPHOKINASE” value [2] was 126 u/L and the CREATININE [2] was 0.67 mg/dL. The GLUCOSE [2] was 129.33 mg/dL, the PHOSPHORUS [2] was 11.57 mg/dL and the SODIUM [2] was 149.33 MEQ/L. For the same molecule, the “TOTAL PROTEIN” value [2] was 5.93 G/DL, the BASOPHIL [3] was 0% and the EOSINOPHIL [3] was 0%. For the same molecule, the “ERYTHROCYTE COUNT” value [3] was 6.87 x10E6/uL, the HEMATOCRIT [3] was 40.23% and the HEMOGLOBIN [3] was 15.07 G/DL. For the same molecule, the “LEUKOCYTE COUNT” value [3] was 19.9 x10E3/uL, the LYMPHOCYTE [3] was 96.33% and the “MEAN CORPUSCULAR HEMOGLOBIN” value [3] was 21.93 pg. For the same molecule, the “MEAN CORPUSCULAR HEMOGLOBIN CONCENTRATION” value [3] was 37.47 G/DL, the “MEAN CORPUSCULAR VOLUME” value [3] was 58.57 fL and the MONOCYTE [3] was 0%. The NEUTROPHIL [3] was 3.67%, the “PLATELET COUNT” value [3] was 1396 x10E3/uL and the “ALANINE AMINOTRANSFERASE” value [3] was 40.67 u/L. For the same molecule, the ALBUMIN [3] was 3.47 G/DL, the “ALKALINE PHOSPHATASE” value [3] was 183 u/L and the “ASPARTATE AMINOTRANSFERASE” value [3] was 56.33 u/L. For the same molecule, the “BLOOD UREA NITROGEN” value [3] was 13.33 mg/dL, the CHLORIDE [3] was 106 MEQ/L and the CHOLESTEROL [3] was 63 mg/dL. For the same molecule, the “CREATINE PHOSPHOKINASE” value [3] was 125.67 u/L, the CREATININE [3] was 0.5 mg/dL and the GLUCOSE [3] was 154.67 mg/dL. For the same molecule, the PHOSPHORUS [3] was 10.7 mg/dL, the SODIUM [3] was 152.33 MEQ/L and the “TOTAL PROTEIN” value [3] was 5.8 G/DL.
